Assay results: US6087118A, “Method for diagnosing alzheimer's disease” (priority 1999, dated 2000)
Entries after “also recorded” stand apart in the source; their conditions may differ.

What was measured:
[1] = test system: K+ channels in human platelets; assay: Ionomycin-stimulated 86Rb+ efflux from perfused platelets; format: cell-based; conditions: for Inhibition in controls (%) of ionomycin-stimulated 86Rb+ efflux: platelets of age- and sex-matched controls; for Inhibition in controls (%) of ionomycin-stimulated 86Rb+ efflux / Inhibition in Alzheimer's disease (%) of ionomycin-stimulated 86Rb+ efflux / Effect on ionomycin-stimulated 86Rb+ efflux, pooled data (FIG. 3a) / Effect on ionomycin-stimulated 86Rb+ efflux, pooled data (FIG. 3b): ionomycin 1 μM, apamin 100 nM, charybdotoxin 300 nM; for Inhibition in controls (%) of ionomycin-stimulated 86Rb+ efflux / Inhibition in Alzheimer's disease (%) of ionomycin-stimulated 86Rb+ efflux: median (interquartile range); for Inhibition in Alzheimer's disease (%) of ionomycin-stimulated 86Rb+ efflux: platelets of patients with AD; for Effect on ionomycin-stimulated 86Rb+ efflux, pooled data (FIG. 3a) / Inhibition of ionomycin-stimulated 86Rb+ efflux in 9 of 11 control subjects / Inhibition of ionomycin-stimulated 86Rb+ efflux in two control subjects: control subjects; for Effect on ionomycin-stimulated 86Rb+ efflux, pooled data (FIG. 3a) / Effect on ionomycin-stimulated 86Rb+ efflux, pooled data (FIG. 3b): n=11; for Effect on ionomycin-stimulated 86Rb+ efflux, pooled data (FIG. 3a): P<0.0001; for Inhibition of ionomycin-stimulated 86Rb+ efflux in 9 of 11 control subjects: the 9 of 11 that responded; for Inhibition of ionomycin-stimulated 86Rb+ efflux in two control subjects: the other 2 of 11 (minimal effects); for Inhibition of ionomycin-stimulated 86Rb+ efflux in 8 of 11 patients with AD: 8 of 11 (minimal effects); for Effect on ionomycin-stimulated 86Rb+ efflux, pooled data (FIG. 3b): patients with Alzheimer's disease, P=0.883
Protocol: (§1) Platelet perfusion^17. Blood was drawn by venepuncture and anticoagulated with acid-citratedextrose (ACD). Platelets were prepared by centrifugation within an hour of venesection and incubated with ^86 Rb^+ for 2 h. The platelet suspension (2.5×10^7 platelets per ml) was then injected into perfusion chambers, where the cells settled and became immobilized on inert filters (Millipore). The platelets were then continuously perfused with Krebs solution, to allow them to stabilize for 20 min before the start of each experiment. The perfusion buffer was then changed for 5 min to Krebs solution containing thrombin (0.3 IU/ml) or ionomycin (1 μM), after which the perfusion was switched to the original solution and continued for another 20 min. From 0 to 10 min after the addition of thrombin or ionomycin the perfusate was collected at 1-min intervals and thereafter at 2-min intervals. The solutions used for perfusion were bubbled with 95% O2 and 5% CO2 throughout the experiment (pH 7.4). At the end of the experiment the polycarbonate filters were retrieved and placed in scintillation vials, to which 3.5 ml of Aquasafe 500 scintillation fluid was added. The radioactivity in the perfusates and filters was determined by liquid scintillation counting in a Beckmann LS 6000 SE counter and the loss of radioactivity from the cells was calculated. The amount of ^86 Rb^+ (pmol) in each fraction of perfusate collected was determined using the specific activity of the isotope. The radioactivity was measured in each fraction and the results were plotted as the cumulative efflux of ^86 Rb^+ against time.
(§2) Buffers and drucas. ACD contained citric acid (15 g), trisodium citrate (25 g), and dextrose (20 g) in 1 l of distilled water. Krebs buffer contained (mmol/l): NaCl (119); KCl (4.6); CaCl2 (1.5); NaH2 PO4 (1.2); MgCl2 (1.2); NaHCO3 (15); and glucose (11). Apamin, charybdotoxin, α-dendrotoxin, iberiotoxin, ionomycin, and human thrombin were purchased from Sigma Chemical Company, Poole, Dorset. ^86 RbCl was purchased from Amersham International plc (Amersham, Bucks).
(§3) Thrombin and ionomycin. Solutions of thrombin were prepared freshly in distilled water for each experiment and further diluted to a concentration of 0.3 IU/ml in Krebs solution. Stock solutions of ionomycin (10 mM in dimethylsulphoxide) were prepared and stored in aliquots at 4° C. On the day of the experiment ionomycin was further diluted in Krebs solution to a concentration of 1 μM.
(§4) Apamin, charybdotoxin, iberiotoxin, and α-dendrotoxin. Apamin, charybdotoxin, iberiotoxin, and α-dendrotoxin were […]. Apamin, (100 nM), charybdotoxin (300 nM), iberiotoxin (300 nM), and α-dendrotoxin (200 nM) were reconstituted in distilled water and stored in aliquots at -20° C. On the day of the experiment the toxins were further diluted in Krebs solution. Apamin was pre-incubated with the platelets (added at time -20 min) and charybdotoxin, iberiotoxin, and α-dendrotoxin were added with thrombin (at 0 min) for a period of 5 min.
(§5) Data Dresentation and analysis. The results in FIGS. 1-3 are shown as cumulative effluxes of ^86 Rb^+ from 0 to 14 min. The data are shown as means±SEMs (n=number of experiments with platelets obtained from different volunteers). The efflux data were analyzed using analysis of variance with repeated measures.
(§6) K^+ channel fluxes. Platelets were prepared and their K^+ channel fluxes studied as described by DeSilva, H. A. et al^17, by loading fresh platelets with ^86 Rb^+ (used as a radioactive analogue of K^+)^18,19 and stimulating ^86 Rb^+ efflux with thrombin and ionomycin.

[2] = test system: sodium/potassium pump; assay: Uptake of 86Rb+ by platelets; format: cell-based, human; conditions: unpublished observations of de Silva & Aronson
[3] = test system: K+ channels in human platelets; assay: Thrombin-stimulated 86Rb+ efflux from perfused platelets; format: cell-based; conditions: for Effect on thrombin-stimulated 86Rb+ efflux, pooled data (FIGS. 1a, 2a) / Inhibition of thrombin-stimulated 86Rb+ efflux in 8 of 11 control subjects / Inhibition of thrombin-stimulated 86Rb+ efflux in the other three control subjects: control subjects; for Effect on thrombin-stimulated 86Rb+ efflux, pooled data (FIGS. 1a, 2a): n=11, P<0.0001; for Effect on thrombin-stimulated 86Rb+ efflux, pooled data (FIGS. 1a, 2a) / Effect on thrombin-stimulated 86Rb+ efflux, pooled data (FIGS. 1b, 2b) / Inhibition in controls (%) of thrombin-stimulated 86Rb+ efflux / Inhibition in Alzheimer's disease (%) of thrombin-stimulated 86Rb+ efflux: thrombin 0.3 IU/ml, apamin 100 nM, charybdotoxin 300 nM, α-dendrotoxin 200 nM; for Inhibition of thrombin-stimulated 86Rb+ efflux in 8 of 11 control subjects: the 8 of 11 that responded; for Inhibition of thrombin-stimulated 86Rb+ efflux in the other three control subjects: the other 3 of 11 (minimal effects); for Inhibition of thrombin-stimulated 86Rb+ efflux in 9 of 12 patients with AD: 9 of 12 (minimal effects); for Inhibition of thrombin-stimulated 86Rb+ efflux in the other three patients with AD: the other 3 of 12; for Effect on thrombin-stimulated 86Rb+ efflux, pooled data (FIGS. 1b, 2b): patients with Alzheimer's disease, n=12; for Inhibition in controls (%) of thrombin-stimulated 86Rb+ efflux: platelets of age- and sex-matched controls; for Inhibition in controls (%) of thrombin-stimulated 86Rb+ efflux / Inhibition in Alzheimer's disease (%) of thrombin-stimulated 86Rb+ efflux: median (interquartile range); for Inhibition in Alzheimer's disease (%) of thrombin-stimulated 86Rb+ efflux: platelets of patients with AD
Protocol: as §1, §2, §3, §4, §5, §6

| Compound | Inhibition in controls (%) of ionomycin-stimulated 86Rb+ efflux ([1]; iberiotoxin 300 nM) | Inhibition in Alzheimer's disease (%) of ionomycin-stimulated 86Rb+ efflux ([1]; iberiotoxin 300 nM) | Effect on ionomycin-stimulated 86Rb+ efflux, pooled data (FIG. 3a) [1] | Inhibition of ionomycin-stimulated 86Rb+ efflux in 9 of 11 control subjects [1] | Inhibition of ionomycin-stimulated 86Rb+ efflux in two control subjects [1] | Inhibition of ionomycin-stimulated 86Rb+ efflux in 8 of 11 patients with AD [1] | Effect on ionomycin-stimulated 86Rb+ efflux, pooled data (FIG. 3b) [1] | Effect on thrombin-stimulated 86Rb+ efflux, pooled data (FIGS. 1a, 2a) [3] | Inhibition of thrombin-stimulated 86Rb+ efflux in 8 of 11 control subjects [3] | Inhibition of thrombin-stimulated 86Rb+ efflux in the other three control subjects [3] | Inhibition of thrombin-stimulated 86Rb+ efflux in 9 of 12 patients with AD [3] | Inhibition of thrombin-stimulated 86Rb+ efflux in the other three patients with AD [3] | Effect on thrombin-stimulated 86Rb+ efflux, pooled data (FIGS. 1b, 2b) [3] | Inhibition in controls (%) of thrombin-stimulated 86Rb+ efflux [3] | Inhibition in Alzheimer's disease (%) of thrombin-stimulated 86Rb+ efflux [3] | other results |
| --- | --- | --- | --- | --- | --- | --- | --- | --- | --- | --- | --- | --- | --- | --- | --- | --- |
| iberiotoxin (QFTDVDCSVSKECWSVCKDLFGVDRGKCMGKKCRCYQ; UniProt P24663 1-37, looked up) [purchased from Sigma] | 2 (0-3) % | 0 (0-4) % |  |  |  |  |  |  |  |  |  |  |  |  |  | Effect on ionomycin-stimulated effluxes in platelets from any individual ([1]; patients with AD and controls, iberiotoxin 300 nM): no effect |
| C[C@@H]1O[C@@H](O[C@H]2C[C@@H](O)[C@]3(CO)[C@H]4[C@H](O)C[C@]5(C)[C@@H](C6=CC(=O)OC6)CC[C@]5(O)[C@@H]4CC[C@]3(O)C2)[C@H](O)[C@H](O)[C@H]1O [ouabain] |  |  |  |  |  |  |  |  |  |  |  |  |  |  |  | Share of 86Rb+ uptake in platelets inhibitable by ouabain [2]: over 90% |
| charybdotoxin | 28 (20-34) % | 4 (1-26) % | inhibited; also recorded: significant reductions | ≥ 22% | less than 12% | less than 12% | no significant effect; also recorded: minimal effects | inhibited; also recorded: significant reductions | ≥ 16% | less than 10% | less than 10% | at least 16% | no significant effect; also recorded: neither apamin nor charybdotoxin caused significant reductions | 22 (18-29) % | 0 (0-4) % |  |
| α-dendrotoxin |  |  |  |  |  |  |  | inhibited |  |  |  |  | inhibited | 26 (20-29) % | 19 (18-27) % |  |
| CC(C)C[C@@H]1NC(=O)[C@H](C)NC(=O)[C@H]([C@@H](C)O)NC(=O)[C@H](CCC(=O)O)NC(=O)[C@@H]2CCCN2C(=O)[C@H](C)NC(=O)[C@H](CCCCN)NC(=O)[C@@H]2CSSC[C@@H](C(=O)N[C@@H](CCC(N)=O)C(=O)N[C@@H](CCC(N)=O)C(=O)N[C@@H](Cc3cnc[nH]3)C(N)=O)NC(=O)[C@H](CCCNC(=N)N)NC(=O)[C@H](CCCNC(=N)N)NC(=O)[C@H](C)NC(=O)[C@H](CSSC[C@H](N)C(=O)N[C@@H](CC(N)=O)C(=O)N2)NC1=O [Apamin] | 30 (20-31) % | 1 (0-20) % | inhibited | at least 18% | less than 12% | less than 12% | no significant effect | inhibited | at least 18% | less than 10% | less than 10% | at least 16% | no significant effect | 26 (20-27) % | 0 (0-0) % | Effect on ionomycin-stimulated 86Rb+ efflux, pooled data (FIG. 3a) ([1]; listed as apamin): significant reductions; Effect on ionomycin-stimulated 86Rb+ efflux, pooled data (FIG. 3b) ([1]; listed as apamin): minimal effects; Effect on thrombin-stimulated 86Rb+ efflux, pooled data (FIGS. 1a, 2a) ([3]; listed as apamin): significant reductions; Effect on thrombin-stimulated 86Rb+ efflux, pooled data (FIGS. 1b, 2b) ([3]; listed as apamin): neither apamin nor charybdotoxin caused significant reductions |
